# From article PMC9775310, “Anticancer, Antimicrobial, and Antioxidant Activities of Organodiselenide-Tethered Methyl Anthranilates” (Biomolecules, 2022)
# Where two headings read alike, the source gives them in different places.
# Assays:
# HepG2 cells = assay: MTT assay, antiproliferative activity, HepG2 liver carcinoma cells; assay type: cell-based; conditions: Homo sapiens, read-out: HepG2 IC50
# Description: (§1) The anticancer activity of the OSe was performed using the MTT assay against liver (HepG2) and breast (MCF-7) carcinoma cells, as well as normal WI-38 cells following the reported method. Experimental details can be found in the Supplementary Materials Section S1.
# (§2) Accordingly, the anticancer properties of the OSe hybrids were assessed against two cancer cell lines, i.e., HepG2 and MCF-7 cells. Furthermore, their corresponding cytotoxicity was also estimated against the immortalized lung WI-38 fibroblasts employing the MTT assay. The Adriamycin cancer drug was used as the positive control. The concentration inhibition, 50%, needed to kill half of the cells (IC50) was estimated from (concentration-response plots) and tabulated in Table 1.
# (§3) 1.1. The biological assays
# (§4) 1.1.1. The anticancer activity
# (§5) The breast adenocarcinoma (MCF-7), Hepatocellular carcinoma (HEPG-2), and normal fibroblast (WI-38) cells were obtained from ATCC via Holding company for biological products and vaccines (VACSERA), Cairo, Egypt. The reagents […] medium, MTT, DMSO, and fetal bovine serum was obtained from Sigma Aldrich. Dulbecco’s modified Eagle’s medium was used as the culture medium for the cells, and the cytotoxicity was evaluated using the reported MTT assay. Doxorubicin was used as the positive reference, and the IC50 values were obtained from the corresponding dose-response curve.
# (§6) This colorimetric assay is based on converting the yellow tetrazolium bromide (MTT) to a purple formazan derivative by mitochondrial succinate dehydrogenase in viable cells. Cell lines were cultured in […] medium with 10% fetal bovine serum. Antibiotics added were 100 units/ml penicillin and 100µg/ml streptomycin at 37 C in a 5% Co2 incubator. The cell lines were seeded in a 96-well plate at a density of 1.0x10^4 cells/well. at 37 C for 48 h under 5% […]
# Finally, dimethyl sulfoxide (DMSO) in the volume of 100 µl is added to each well to dissolve the purple formazan formed. The colorimetric assay is measured and recorded at an absorbance of 570 nm using a plate reader (EXL 800, USA). […]
# Staphylococcus aureus [1] = assay: Agar well diffusion assay, S. aureus; assay type: cell-based; conditions: ratio of inhibition zone to that of positive control
# Description: (§7) According to the reported method, the OSe agents’ antimicrobial properties were estimated against Staphylococcus aureus (S. aureus), Escherichia coli (E. coli), and Candida albicans (C. albicans) microbial strains using the agar well diffusion assay. In addition, the MICs (in […]) were also recorded via the microdilution method following the reported procedure. Experimental details can be found in the Supplementary Materials Section S1 [16, 18].
# (§8) The promising anticancer activities manifested by the OSe compounds encourage us to further evaluate their respective antimicrobial activity against a panel of gram-negative bacteria (e.g., E. coli) and the gram-positive bacteria (e.g., S. aureus) as well as a fungal strain (C. albicans) using the method of agar diffusion. The clotrimazole antifungal and the ampicillin antibacterial drugs were used as the positive controls. […]
# (§9) 1.1.2. The antimicrobial activity
# (§10) The antimicrobial activities of the OSe compounds were evaluated against C. albicans yeast as well as E. coli gram-negative and S. aureus gram-positive bacteria employing the agar well diffusion assay [ 4 ] .
# (§11) Briefly, a concentration of 1 mM was prepared for each compound by dissolving in DMSO.
# (§12) Paper discs of standard size […] were sterilized in an autoclave and soaked in 9 µL of the test compounds, and placed in the Petri dishes, which in turn contain a nutrient media (agar 9 g, peptone 5 g, and beef extract 3 g) seeded with the dedicated strain. Incubation lasted for 13 h at 36 0C. Experiments were replicated three times and the antifungal clotrimazole and antibiotic ampicillin were used as standards. The % activity index for the complex was determined and depicted in table 2. […]
# MCF-7 cells = assay: MTT assay, antiproliferative activity, MCF-7 breast carcinoma cells; assay type: cell-based; conditions: Homo sapiens, MCF7, 24 h, read-out: MCF7 IC50
# Description: as §1
# as §2, with “control.” for “control. The concentration inhibition, 50%, needed to kill half of the cells (IC50) was estimated from (concentration-response plots) and tabulated in Table 1.”
# as §3, §4, §5, §6
# (§13) Finally, dimethyl sulfoxide (DMSO) in the volume of 100 µl is added to each well to dissolve the purple formazan formed. […]
# Staphylococcus aureus [2] = assay: Agar well diffusion assay, S. aureus; assay type: cell-based; conditions: read-out: S. aureus ZID
# Candida albicans [3] = assay: Agar well diffusion assay, C. albicans; assay type: cell-based; conditions: ratio of inhibition zone to that of positive control
# Description: as §7, §8, §9, §10, §11, §12
# WI-38 cells = assay: MTT assay, cytotoxicity against normal WI-38 fibroblasts; assay type: cell-based; conditions: Homo sapiens, WI-38, 24 h, read-out: WI38 IC50
# Description: as §1
# as §2, with “control.” for “control. The concentration inhibition, 50%, needed to kill half of the cells (IC50) was estimated from (concentration-response plots) and tabulated in Table 1.”
# as §3, §4, §5, §6, §13
# Candida albicans [4] = assay: Agar well diffusion assay, C. albicans; assay type: cell-based; conditions: read-out: C. Albicans ZID
# Escherichia coli [5] = assay: Agar well diffusion assay, E. coli; assay type: cell-based; conditions: read-out: E. coli ZID
# Escherichia coli [6] = assay: Agar well diffusion assay, E. coli; assay type: cell-based; conditions: ratio of inhibition zone to that of positive control
# Description: as §7, §8, §9, §10, §11, §12
# [7] = DPPH radical scavenging bioassay; conditions: for DPPH radical scavenging activity: 200 µL, 1 mM in MeOH, DPPH 400 µL, 30 min, 517 nm
# Text: (§14) The DPPH and ABTS in vitro bioassays were used to assess the OSe antioxidant activities following the reported method. Experimental details can be found in the Supplementary Materials Section S1.
# (§15) The redox modulation activities of the OSe compounds were extensively explored over the last decade owing to their chemopreventive and antioxidant potency. The latter is usually investigated by the ABTS and DPPH in vitro tests employing vitamin C as the positive control. The OSe compound’s magnitude estimated the antioxidant potential to decolorize the distinctive colors of the DPPH^. and ABTS^. radicals at 517 nm and 734 nm, respectively (Figure 2).
# (§16) Figure 2 The OSe compounds redox activities assessment using the ABTS and DPPH experiments. All tests are mean ± SD. ABTS experiment: absorbance was followed at 734 nm for OSe compounds (50 µL, 1 mM in MeOH) and ABTS solution (60 µL). DPPH experiment: Absorbance was monitored after 30 min at 517 nm for OSe compounds (200 µL, 1 mM in MeOH) and DPPH (400 µL). […]
# 1.1.3. The antioxidant activity
# 1.1.3.1. The DPPH bioassay
# The hydrogen atom or electron donation ability of the corresponding compounds was measured by estimating the bleaching of the purple color of a methanolic solution of DPPH [5]. This spectrophotometric assay uses stable DPPH. reagent. The sample was prepared by adding […] of the OSe compounds (1 mM in methanol) to […] DPPH in methanol. After 30 min of incubation in the dark, the absorbance was read against a blank at […]. Ascorbic acid (vitamin C) and ebselen were used as standard antioxidants (positive control). A blank sample was run without DPPH. A negative control sample was run using methanol instead of the sample. The radical scavenging activity was […]
# using the following equation:
# Inhibition%= (Ablank-Asample)/(Ablank)*100. […]
# [8] = ABTS radical scavenging bioassay; conditions: dose needed to decrease the absorbance by 50%
# Text: as §14, §15, §16
# 1.1.3.2. The ABTS bioassay
# The antioxidant activity of the investigated compounds was assessed using 2,2’-azino-bis(3-ethylbenzothiazoline-6-sulphonic acid (ABTS) method. The radical cation derived from ABTS was prepared by the reaction of 60 mM ABTS solution with 0.3 M manganese dioxide solution in 0.1M phosphate buffer, pH 7. Then, the mixture was shaken, centrifuged, filtered, and the absorbance (Acontrol) of the resulting green-blue solution (ABTS radical solution) was measured at wavelength 734 nm. Then, […] of 1 mg/ml test compound in phosphate-buffered methanol was added. The absorbance (Atest) was measured. The reduction in color intensity was expressed as % inhibition. The % inhibition for each compound is calculated from the following equation
# Inhibition% = (Acontrol-Asample)/(Acontrol)*100
# Ascorbic acid (vitamin C) was used as a standard antioxidant (positive control). A blank sample was run without ABTS and using MeOH/phosphate buffer (1:1) instead of the sample. A negative control sample was run with MeOH/phosphate buffer (1:1) instead of a tested compound.
SMILES,"IC50 (HepG2 cells; MTT, HepG2 cells, 24 h incubation) [µM]",S. aureus IA% (activity index) (Staphylococcus aureus [1]) [%],IC50 (MCF-7 cells) [µM],"IC50 (HepG2 cells; HepG2, 24 h) [µM]",zone of inhibition at 20 µM (Staphylococcus aureus [2]) [mm],C. Albicans IA% (activity index) (Candida albicans [3]) [%],IC50 (WI-38 cells) [µM],zone of inhibition at 20 µM (Candida albicans [4]) [mm],melting point [°C],zone of inhibition at 20 µM (Escherichia coli [5]) [mm],E. coli IA% (activity index) (Escherichia coli [6]) [%],DPPH radical scavenging activity [7] [%],IC50 [8] [µM],IC50 ([7]; dose needed to decrease the absorbance by 50%) [µM]
"COc1cccc2c1C(=O)c1c(O)c3c(c(O)c1C2=O)C[C@@](O)(C(=O)CO)C[C@@H]3O[C@H]1C[C@H](N)[C@H](O)[C@H](C)O1 [Adriamycin, reference compound]",4.5 ± 0.2,–,–,–,–,–,–,–,–,–,–,–,–,–
"COC(=O)c1cc([Se][Se]c2ccc(NC=O)c(C(=O)OC)c2)ccc1NC=O [Compound 7, dimethyl 5,5′-diselanediylbis(2-formamidobenzoate)]",–,14.3,79 ± 4.2,83.7 ± 4.4,3,16.7,45.7 ± 2.7,4,195 to 196,–,–,–,–,–
"COC(=O)c1cc([Se][Se]c2ccc(NC(C)=O)c(C(=O)OC)c2)ccc1NC(C)=O [Compound 8, dimethyl 5,5′-diselanediylbis(2-acetamidobenzoate)]",–,–,> 100,> 100,–,–,> 100,–,186 to 187,–,–,–,–,–
"COC(=O)c1cc([Se][Se]c2ccc(NC(=O)CCl)c(C(=O)OC)c2)ccc1NC(=O)CCl [Compound 9, dimethyl 5,5′-diselanediylbis(2-(2-chloroacetamido) benzoate)]",–,–,> 100,> 100,–,–,> 100,–,150 to 152,–,–,–,–,–
"COC(=O)c1cc([Se][Se]c2ccc(NC(=O)COc3ccccc3)c(C(=O)OC)c2)ccc1NC(=O)COc1ccccc1 [Compound 10, dimethyl 5,5′-diselanediylbis(2-(2-phenoxyacetamido) benzoate)]",–,38.1,53.5 ± 3,81.5 ± 4.2,8,20.8,38.2 ± 2.5,5,152 to 154,5,21.7,–,–,–
COC(=O)c1cc([Se][Se]c2ccc(NC(=O)CCC(=O)O)c(C(=O)OC)c2)ccc1NC(=O)CCC(=O)O [Compound 11],–,33.3,55.1 ± 3.2,43.7 ± 2.6,7,41.7,> 100,10,150 to 152,5,21.7,–,–,–
"COC(=O)c1cc([Se][Se]c2ccc(N3C(=O)CCC3=O)c(C(=O)OC)c2)ccc1N1C(=O)CCC1=O [Compound 12, dimethyl 5,5′-diselanediylbis(2-(2,5-dioxopyrrolidin-1-yl) benzoate]",–,–,> 100,> 100,–,–,> 100,–,100,–,–,–,–,–
"COC(=O)c1cc([Se][Se]c2ccc(NC(=O)/C=C\C(=O)O)c(C(=O)OC)c2)ccc1NC(=O)/C=C\C(=O)O [Compound 13, (2Z,2’Z)-4,4′-((diselanediylbis(2-(methoxycarbonyl)-4,1-phenylene))bis(azanediyl)) bis (4-oxobut-2-enoic acid)]",–,19.0,76.2 ± 4,78.5 ± 3.9,4,20.8,47 ± 2.8,5,149.5 to 151,–,–,–,–,–
"COC(=O)c1cc([Se]Cc2ccccc2)ccc1N [Compound 15, methyl 2-amino-5-(benzylselanyl) benzoate]",–,85.7,12.8 ± 0.9,6.48 ± 0.4,18,91.7,25.8 ± 1.8,22,78,17,73.9,89,–,–
"COC(=O)c1cc([Se]CC(=O)Nc2ccccc2)ccc1N [Compound 16, methyl 2-amino-5-((2-oxo-2-(phenylamino)ethyl)selanyl) benzoate]",–,42.8,50.8 ± 2.9,30.6 ± 2.4,9,54.2,71.9 ± 4.1,13,126 to 128.5,6,26.1,–,–,–
"O=C1O[C@H]([C@@H](O)CO)C(O)=C1O [Vitamin C, Ascorbic acid, reference compound]",–,–,–,–,–,–,–,–,–,–,–,95,28.16 ± 0.19,19.18 ± 0.13
